Experimental findings from PMC9890698 (BMC Biology, 2023) are described below.

Each structure is given as a SMILES string. Values joined by “and” are separate entries in the source; they are usually repeats but may differ in a detail not shown here. Identical values can stand only once.

Assay [1] deals with T1, Human P2Y1-R (Homo sapiens, UniProt P47900).
T1 construct: expressed in transfected cells; host or cells: HEK293T/17
The experiment in a line: Gαq protein activation BRET2 assay (Gαq-RLuc8/GFP2-Gγ2/Gβ1) in HEK293T cells expressing P2Y1-R. The conditions noted are these: for G protein signaling, Ligand-modulated BRET (% of maximum MRS2179 mean value): Figure 4a, individual replicates. It is filed as cell-based. The arrangement: ADP-modulated BRET / MRS2179-modulated BRET: unit not given here. An excerpt:
As previously described, using a BRET^2 (bioluminescence resonance energy transfer)-based assay, we directly monitored the basal Gαq protein activation by measuring the interaction between Gαq and Gγ2 subunits of the Gαqβ1γ2 heterotrimer complex. Indeed, this assay is based on the non-radiative transfer between the Renilla reniformis luciferase (RLuc8) energy donor fused to the Gαq protein subunit and the fluorescent GFP2 energy acceptor fused to Gγ2 protein subunit (Fig. 1a). […] By contrast, ligand-independent constitutive receptor activation or agonist-induced receptor activation will promote Gαq/Gγ2 subunit dissociation, thereby leading to a decrease of the basal BRET signal (Fig. 1a). […] To preclude any P2Y1-R activation by a passive release of ADP by HEK293T cells, we performed similar experiments in the presence of high concentration of apyrase (0.2U/mL) to degrade any trace of ADP in the medium (Additional File 2: Fig. S2a). Under these conditions, P2Y1-R expression still induces a marked and significant decrease of the basal BRET signal compared to control cells (pcDNA3.1), thereby supporting a P2Y1-R-dependent constitutive activation of Gαq protein. […] Of note, because P2Y1-R and AT1-R were respectively Myc- and HA-tagged and were thus detected using different primary antibodies, their expression at the cell surface cannot be compared between each other’s.
Human P2Y1-R (NCBI Reference Sequence: NM_002563.2) and P2Y12-R (NCBI Reference Sequence: NM_022788.3) were fused to double Myc epitope and rat AT1-R (NCBI Reference Sequence: NM_030985.4) to HA tag in N-terminus extracellular region. Alternatively, receptors were also fused to Venus tag in C-terminus intracellular region. Plasmids encoding Gαq-RLuc8, GFP2-Gγ2 and untagged Gβ1 were previously described. ADP was purchased from Sigma-Aldrich/Merck (Darmstadt, Germany). […] The Gq inhibitor (FR900359) was kindly supplied by Evi Kostenis (University of Bonn. Germany).
G protein activation and β-arrestin 2 recruitment were performed as previously described. Briefly, vectors encoding receptors, Gαq-RLuc8, GFP2-Gγ2, Gβ1, or β-arrestin 2 were transiently cotransfected into HEK293T/17 cells as indicated in the figure legends. Forty-eight hours after transfection, cells were washed and resuspended in PBS containing 0.1% (w/v) glucose at room temperature and then distributed (80 μg proteins/well) in a 96-well microplate (PerkinElmer). For G protein activation experiments (BRET^2), cells were incubated in the absence (basal BRET signal) or in the presence of ligand for 1 minute. BRET signal between RLuc8 and GFP2 was measured after addition of the luciferase substrate coelenterazine 400a (5 μM). For β-arrestin 2 recruitment (BRET^1), cells were stimulated with ligands for 5 or 15 min. BRET signal was recorded after incubation with coelenterazine h (5 μM) for 8 min. For kinetics studies, BRET signal between RLuc and Venus was recorded at 20-s intervals at basal state for the 2 first minutes and then for 5 min after ligand injection. For saturation curves (BRET^1), the expression level of Venus- or RLuc-tagged protein was determined by direct measurement of total fluorescence and luminescence respectively. Total fluorescence was first measured with an excitation filter at 485 nm and an emission filter at 520 nm. Then, the same sample was incubated for 8 minutes with 5 μM coelenterazine h and the total luminescence was measured. BRET^2 and BRET^1 readings were collected using a modified Infinite F500 (Tecan Group Ltd). The BRET^2 signal was calculated by the ratio of emission of GFP2 (510–540 nm) to RLuc8 (370–450 nm) and the BRET^1 signal by the ratio of emission of Venus (520–570 nm) to RLuc (370–480 nm). […]
On the technique in general: In BRET a luciferase serves as donor, and the signal depends on an acceptor being close.

Assay [2] deals with washed human platelets (P2Y1-R/Gαq signaling). The experiment in a line: IP1 accumulation assay (HTRF) in washed human platelets. It counts as cell-based. The conditions noted are these: washed human platelets, ADP 100 μM, antagonists 10 μM, Gq inhibitor 100 nM, 2 h, apyrase 0.02 U/mL, result in words. The method, then:
As performed in HEK293T cells, we thus quantified intracellular IP1 levels to monitor Gαq protein-dependent signaling pathways.
Human platelets were prepared from adult healthy volunteers free of antiplatelet or anti-inflammatory medication since at least ten days. […] After two steps of centrifugation and suspension in Tyrode’s buffer (140 mM NaCl, 5 mM KCl, 5 mM KH2PO4, 1 mM MgSO4, 10 mM HEPES, 5 mM glucose and 0.35% (w/v) BSA, pH 6,7), washed platelets were suspended in the same buffer adjusted to pH 7.4 and containing 1 mM CaCl2. The final platelet suspension was adjusted to 3.10^8 platelets/mL and rested for 45 min in the presence of 0.02 U/mL apyrase and 10 μM indomethacin at 37 °C prior experiments. PGI2 (0.5 μM) was added before centrifugation steps to avoid platelet activation.
Quantification of intracellular IP1 was performed using the HTRF (Homogeneous Time Resolved Fluorescence) IP1 competitive immunoassay (IP-One Tb kit. Cisbio. France) according to the manufacturer’s instructions. Briefly, 20,000 HEK293T/17 cells or 3.10^6 platelets were distributed in a 384-well white microplate (Greiner) and incubated with the indicated molecules for 30 min or 2 h at 37 °C in the presence of 50 mM of LiCl to prevent IP1 degradation. After addition of d2-labeled IP1 (acceptor) and anti-IP1-Cryptate (donor) for 1 h, the specific FRET signals were calculated by the fluorescence ratio of the acceptor and donor emission signal (665/620 nm) collected using a modified Infinite F500 (Tecan Group Ltd). Conversion of the HTRF ratio of each sample into IP1 concentrations was performed on the basis of a standard curve to determine the linear dynamic range of the assay.
For orientation: Time-resolved FRET reads energy transfer from a long-lived donor to a nearby acceptor.

Where [3] appears, read: G protein signaling, Fig. 4a, 1 min.

T1 sequence (P47900 whole entry): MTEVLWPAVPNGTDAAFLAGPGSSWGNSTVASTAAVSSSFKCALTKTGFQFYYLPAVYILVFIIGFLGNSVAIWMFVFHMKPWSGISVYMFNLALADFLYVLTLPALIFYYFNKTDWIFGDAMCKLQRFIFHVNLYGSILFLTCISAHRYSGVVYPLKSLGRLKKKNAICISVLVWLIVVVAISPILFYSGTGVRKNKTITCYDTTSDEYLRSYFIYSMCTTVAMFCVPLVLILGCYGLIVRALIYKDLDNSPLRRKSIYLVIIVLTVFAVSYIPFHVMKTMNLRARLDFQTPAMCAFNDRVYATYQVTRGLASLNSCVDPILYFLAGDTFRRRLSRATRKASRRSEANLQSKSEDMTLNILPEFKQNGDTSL

As to `Nc1ncnc2c1ncn2[C@@H]1O[C@H](COP(=O)(O)OP(=O)(O)O)[C@@H](O)[C@H]1O` [ADP, adenosine diphosphate], in assay [1] (ADP 10 μM, 1 min, result in words), the “ADP-induced change of Gαq/Gγ2 BRET signal” value was “significant but moderate decrease of the BRET signal”. The “ADP-modulated BRET” value in assay [1] (P2Y1-R, ADP 10 μM, 1 min, individual experiments) was -0.02511 and -0.01906 and -0.00821 and -0.04045 and -0.02327 and -0.02843. Besides, the “Effect on IP1 levels” value in assay [2] was “significantly increased”.
As usually defined, the EC50 is the concentration at which the effect is half-maximal. Consider `CNc1nc(I)nc2c1ncn2[C@H]1C[C@H](OP(=O)(O)O)[C@]2(COP(=O)(O)O)C[C@H]12` [MRS2500, 2-iodo-N6-methyl-(N)-methanocarba-2′-deoxyadenosine-3′,5′-bisphosphate], for which the “G protein signaling, Ligand-modulated BRET (% of maximum MRS2179 mean value)” value was 155.404 % of maximum MRS2179 mean value and 138.849 % of maximum MRS2179 mean value and 107.119 % of maximum MRS2179 mean value and 132.185 % of maximum MRS2179 mean value and 125.72 % of maximum MRS2179 mean value and 141.754 % of maximum MRS2179 mean value in assay [1] ([Ligand] 1.00E-04 M); 122.914 % of maximum MRS2179 mean value and 111.352 % of maximum MRS2179 mean value and 93.6281 % of maximum MRS2179 mean value and 124.36 % of maximum MRS2179 mean value and 97.7584 % of maximum MRS2179 mean value and 107.998 % of maximum MRS2179 mean value in assay [1] ([Ligand] 1.00E-05 M); 73.5711 % of maximum MRS2179 mean value and 80.459 % of maximum MRS2179 mean value and 53.1675 % of maximum MRS2179 mean value and 68.2708 % of maximum MRS2179 mean value and 52.8113 % of maximum MRS2179 mean value and 71.2103 % of maximum MRS2179 mean value in assay [1] ([Ligand] 1.00E-06 M); 18.6255 % of maximum MRS2179 mean value and 25.6955 % of maximum MRS2179 mean value and 14.1554 % of maximum MRS2179 mean value and 20.945 % of maximum MRS2179 mean value and 1.4 % of maximum MRS2179 mean value and 18.5955 % of maximum MRS2179 mean value in assay [1] ([Ligand] 1.00E-07 M); 1.081 % of maximum MRS2179 mean value and -4.947 % of maximum MRS2179 mean value and -10.1975 % of maximum MRS2179 mean value and -7.982 % of maximum MRS2179 mean value and -25.6775 % of maximum MRS2179 mean value and 3.691 % of maximum MRS2179 mean value in assay [1] ([Ligand] 1.00E-08 M); -4.558 % of maximum MRS2179 mean value and -14.6104 % of maximum MRS2179 mean value and -16.9372 % of maximum MRS2179 mean value and -9.323 % of maximum MRS2179 mean value and -17.5921 % of maximum MRS2179 mean value and 4.08 % of maximum MRS2179 mean value in assay [1] ([Ligand] 1.00E-09 M). Besides, in assay [1] ([Ligand] 1.00E-10 M), the “G protein signaling, Ligand-modulated BRET (% of maximum MRS2179 mean value)” value was -10.8256 % of maximum MRS2179 mean value and -10.2571 % of maximum MRS2179 mean value and -9.064 % of maximum MRS2179 mean value and -13.8903 % of maximum MRS2179 mean value and -18.6423 % of maximum MRS2179 mean value and -6.511 % of maximum MRS2179 mean value. For the same compound, the EC50 in assay [1] (setting [3]) was 772 nM. Moreover, the “pEC50 ± s.e.m.” value in assay [1] (setting [3]) is listed as 6.113 ± 0.07237. In addition, in assay [1] (G protein signaling, Fig. 4a, 1 min, normalized to the mean value of maximal MRS2179 response, in %), the “Emax ± s.e.m.” value came out at 127.2 ± 3.892. Also, in assay [1] (HEK293T cells, result in words), the “Behaviour on P2Y1-R-dependent constitutive Gαq protein activation” value is “behaved as inverse agonists”. Besides, the “Effect on IP1 levels” value in assay [2] is listed as “inverse agonist efficacy”.
